From article PMC11404765 (Journal of Clinical Oncology, 2024)
Marks after values point to notes of the source that are not given here.

Tests used:
PK profiles in serum = assay type: in vivo, human
[1] = tested on: BTC harboring FGFR2 fusions or rearrangements; settings: phase II trials; cited from earlier work
IDH1-mutant BTC = settings: phase III; cited from earlier work
advanced BTC = settings: phase III, added to chemotherapy, first-line advanced BTC; cited from earlier work

Compound	ORR [1] [%]	Overall survival (OS) (advanced BTC)	other results
CC[C@@]1(O)C(=O)OCc2c1cc1n(c2=O)Cc2c-1nc1cc(F)c(C)c3c1c2[C@@H](NC(=O)CO)CC3 [MAAA-1181a]	–	–	t1/2, mean (SD) (PK profiles in serum; n = 6): 4.76 (1.02) days; Tmax, median (range) (PK profiles in serum; n = 7): 3.88 (1.65-4.07) hours; Cmax, mean (SD) (PK profiles in serum; payload after T-DXd 5.4 mg/kg, n = 7): 11.5 (4.65)^a ng/mL
CCN1CCN(c2ccc(Nc3cc(N(C)C(=O)Nc4c(Cl)c(OC)cc(OC)c4Cl)ncn3)cc2)CC1 [infigratinib]	18.8	–	–
N#Cc1ccnc(N2C(=O)CC[C@H]2C(=O)N(c2cncc(F)c2)[C@H](C(=O)NC2CC(F)(F)C2)c2ccccc2Cl)c1 [ivosidenib]	–	–	PFS compared with placebo (IDH1-mutant BTC): improved
CCN1C(=O)N(c2c(F)c(OC)cc(OC)c2F)Cc2cnc3[nH]c(CN4CCOCC4)cc3c21 [pemigatinib]	35.5	–	–
durvalumab	–	improved overall survival	–
pembrolizumab	–	improved overall survival	–
